# Tested on: influenza virus strain A/Kaw/86
structure (smiles),measurement,value
COC(=O)[C@@]1(C)CCC[C@]2(C)c3cc(OC)ccc3C(=O)C[C@@H]12 [COMPOUND A],plaque morphology of mutant A2,altered plaque morphology

# Reference: patent US6037348A (priority 1997, dated 2000)
